Assay results reported in publication PMC8096265, “A functional LSD1 coregulator screen reveals a novel transcriptional regulatory cascade connecting R-loop homeostasis with epigenetic regulation” (Nucleic Acids Research, 2021).

Columns and labels:
[1] = system: rTetR-LSD1 silencing of synP-mCherry in NIH/3T3 cells; experiment: ChECS pooled shRNA screen, primary sequencing data; format: cell-based, murine; conditions: 14 days DOX; for sequencing reads neg2 / sequencing reads neg3 / sequencing reads neg4 / sequencing reads neg5: mCherry-negative sorted population; for sequencing reads neg2 / sequencing reads pos2: replicate 2; for sequencing reads neg3 / sequencing reads pos3: replicate 3; for sequencing reads neg4 / sequencing reads pos4: replicate 4; for sequencing reads neg5 / sequencing reads pos5: replicate 5; for sequencing reads pos1 / sequencing reads pos2 / sequencing reads pos3 / sequencing reads pos4 / sequencing reads pos5: mCherry-positive sorted population; for sequencing reads pos1: replicate 1
Excerpt: After spiking in control shRNAs at equimolar amounts, the shRNA-mirE library (5451 shRNAs and 8 control shRNAs) targeting 1010 chromatin-associated murine genes was transduced into NIH/3T3 cells expressing the synP-mCherry reporter and rTetR-LSD1. To ensure library representation, a total of 30 million cells were infected with 10% transduction efficiency using conditions that predominantly lead to a single retroviral integration and represent each shRNA in a calculated number of >500 cells. Cells were split into replicates and selected with 2.5 mg/ml Neomycin for 7 days before starting treatment with 1 μg/ml doxycycline. Throughout selection >3 × 10^6 cells per replicate were maintained at each passage to preserve library representation. After 14 days of DOX treatment, cells were sorted into mCherry-positive (top 6–8%, minimum of 5 × 10^5 cells) and mCherry-negative (lowest 75–80%, minimum of 6 × 10^6 cells, see Supplementary Figure S2) populations using a FACS Aria III. Genomic DNA for both populations and 5 replicates was isolated with phenol-extraction using PhaseLock tubes, followed by ethanol precipitation. For each sample, DNA from at least 10^6 cells was used as template in multiple parallel 50-μl PCR reactions, each containing 1 μg template, 1× AmpliTaq Gold buffer, 0.2 mM of each dNTP, 2 mM MgCl2, 0.3 μM of each primer and 1.25 U AmpliTaq Gold Polymerase (Life Technologies). In a first round of PCRs, random barcodes and sample barcodes were added to the shRNA sequences using the following cycling parameters: 95°C for 10 min; 28 cycles of (95°C for 30 s, 54°C for 45 s and 72°C for 60 s); 72°C for 7 min and primers MM2P51_for and MM2P71_rev (Supplementary Table S3). PCR products were combined for each sample, purified from a 1% agarose gel and 20 ng per sample were transferred to a second round of PCR, using similar cycling parameters as for PCR1, but with only 10 ng template per reaction, 6 cycles of amplification and primers MM2P52_for and MM2P72_rev_N708 (Supplementary Table S3). In the second PCR, standard Illumina P7 adaptors and the Illumina N708 index were added to the sequences (total product length = 428 bp). All primers used for the library preparation are listed in […]. The final libraries were cleaned up from a 1% agarose gel, pooled and analysed on an Illumina HiSeq 3000 deep sequencer (150 bp read length including the 22 nucleotides of the guide strand), using standard Illumina primers. Sequence processing was performed using a public Galaxy server (www.usegalaxy.eu). All primary screen data are provided in Supplementary Data Table S1. For each shRNA, the number of matching reads was normalized to the total number of library-specific reads per lane and imported into Microsoft Excel for further analysis. Completely depleted shRNAs (0 reads at T0) obtained a fold depletion value of 1 × 10^−3. The average enrichment score for each individual shRNA was calculated by dividing the geometric mean of the normalized reads of the mCherry+ population by the respective normalized reads mCherry– populations (mCherry+/mCherry–) across five replicates. The gene score was derived by summarizing the average enrichment score of all shRNAs per gene. P-values are based on a Poisson distribution of each shRNA in each individual replicate followed by the combination of all P-values across all replicates using Fisher′s method (cumulative χ^2). χ^2 is a chi-squared distribution with 2k degrees of freedom, where k is the number of tests being combined. This fact was used to determine the P-value for χ^2 followed by a Bonferroni correction for multiple comparison to obtain a P-value for each investigated gene in the library.

[2] = system: rTetR-LSD1 at synP-mCherry reporter in NIH/3T3 cells; experiment: Flow-cytometric synP-mCherry reporter silencing by rTetR-LSD1; format: cell-based, murine; conditions: n = 3; for effect of inhibitor on rTetR-LSD1 activity at synP (mCherry silencing): 10 μM GSK-LSD1 or 400 nM TSA, started in parallel with DOX (1 μg/ml), vs DMSO
Excerpt: The fluorescent reporter expressing mCherry from a synthetic promoter (synP), consisting of six tetO binding sites upstream of an EF1a promoter, was cloned into pMSCV vector, on which expression of mCherry was driven by the synP promoter element and coupled to Blasticidin resistance via a P2A (pMSCV-tetO-EF1a-mCherry-2A-Blasti). The rTetR-LSD1 fusion construct was cloned into a pRRL backbone by standard cloning methods. The LSD1 construct was kindly provided by Tim Somervaille. Expression was driven from an SFFV promoter and coupled to Hygromycin resistance via a P2A sequence (pRRL-rTetR-LSD1-P2A-Hygro). shRNA guides were cloned into the SGEN vector ([49]).
NIH/3T3, Lenti-X 293T and Platinum-E retroviral packaging cell lines were cultivated in DMEM high glucose media (Sigma-Aldrich) supplemented with 10% FBS, 20 mM glutamate, 10 mM sodium pyruvate, 10 mM HEPES (pH 7.3), 100 U/ml penicillin and […] in an incubator providing 37°C and 5% CO2. For retroviral packaging of pMSCV vectors, 20 μg of plasmid were precipitated for 20 min in HBS buffer (140 mM NaCl, 25 mM HEPES, 0.75 mM Na2HPO4, pH 7.0) together with 125 mM CaCl2 and 10 μg GagPol helper plasmid. The mix was added to a 10 cm dish with Platinum-E cells growing at 75–85% confluence in supplemented DMEM. After 16 and 24 h, the media was replaced with fresh DMEM. Supernatant containing the virus was gathered 40–50 h after transfection, filtered through a 0.45 μm filter and added to the target cells at 50–70% confluence. Antibiotic selection for pMSCV-tetO-EF1a-mCherry-2A-Blasti with 10 μg/ml Blasticidin was started 2 days after transduction and kept up for 7 days. For […] packaging of pRRL-vectors, plasmids were mixed with helper plasmids pCMVR8.74 (pCMVR8.74 was a gift from Didier Trono, Addgene #22036) and pCAG-Eco (pCAG-Eco was a gift from Arthur Nienhuis & Patrick Salmon, Addgene #35617) and 3× (w/w) excess of polyethyleneimine 25K in serum free DMEM. […] Expression of GFP and mCherry was analysed every 1–3 days using a MACSQuant Vyb flow cytometer.

[3] = system: RNA:DNA hybrid structures (R-loops) in NIH/3T3 cells; experiment: DRIP-qPCR with S9.6 antibody, R-loops; format: cell-based, murine; conditions: relative to DMSO, NIH/3T3, n = 3
Experimental: Based on a detailed assessment of various DRIP protocols ([53]), DRIP was performed as described, with slight adaptations to workflow #19 ([53]). In brief, NIH/3T3 cells were harvested, washed once with 1X PBS and cross-linked in 1% formaldehyde/PBS for 10 min at room temperature. Crosslinking was quenched with 500 mM glycine for 5 min at room temperature. Cells were lysed in 300 μl of ChIP lysis buffer (50mM HEPES–KOH at pH 7.5, 140 mM NaCl, 1 mM EDTA at pH 8, 1% Triton X-100, 0.1% sodium-deoxycholate, 1% SDS) per 2 million cells for 30 min on ice and homogenized with a syringe every 10 min. Chromatin was fragmented by sonication using an EpiShear Probe Sonicator (Active Motif) for 2 × 12 cycles (20 s pulse, 30 s pause, 40% amplitude). The fragmented chromatin was supplemented with 300 mM NaCl and 50 μg of RNase A in 450 μl TE buffer (10 mM Tris–HCl pH 8, 10 mM EDTA pH 8) and incubated at 37°C for 1 h. The cross-linked D. melanogaster mononucleosomes were treated in parallel to obtain DNA for spike-in controls. To remove proteins and reverse the cross-links, the samples were treated with 15 μl of Proteinase K (20 mg/ml; Thermo Fisher Scientific) at 65°C for 16 h. […] The pellet was resuspended in 5 mM Tris–HCl, pH 8.5 and concentration was determined by NanoDrop. […]

[4] = system: EZH2; experiment: Global H3K27me3 signal after EZH2 inhibition; format: cell-based; conditions: EZH2-specific inhibitor; Supplementary Figure S6C

Homez.5313: library shRNA, guide TAAAACAGTAGTTCCTAGCCTT
sequencing reads neg2 [1]: 0.001
sequencing reads neg3 [1]: 22
sequencing reads neg4 [1]: 0
sequencing reads neg5 [1]: 4
sequencing reads pos1 [1]: 130
sequencing reads pos2 [1]: 19
sequencing reads pos3 [1]: 22
sequencing reads pos4 [1]: 4
sequencing reads pos5 [1]: 48

Kdm4b.2934: library shRNA, guide TTCTTGGTGATGACGATCTGGC
sequencing reads neg2 [1]: 0.001
sequencing reads neg3 [1]: 0
sequencing reads neg4 [1]: 0
sequencing reads neg5 [1]: 14
sequencing reads pos1 [1]: 14
sequencing reads pos2 [1]: 426
sequencing reads pos3 [1]: 0
sequencing reads pos4 [1]: 1
sequencing reads pos5 [1]: 159

CC(/C=C/C(=O)NO)=C\[C@@H](C)C(=O)c1ccc(N(C)C)cc1 [Trichostatin A (TSA), Trichostatin A]
effect of inhibitor on rTetR-LSD1 activity at synP (mCherry silencing) [2]: the activity of rTetR-LSD1 at the synP element is dependent on the catalytic activity of LSD1 and HDACs

c1ccc([C@@H]2C[C@H]2NC2CCNCC2)cc1 [GSK-LSD1]
effect of inhibitor on rTetR-LSD1 activity at synP (mCherry silencing) [2]: the activity of rTetR-LSD1 at the synP element is dependent on the catalytic activity of LSD1 and HDACs
R-loops after GSK-LSD1 treatment ([3]; 50 μM GSK-LSD1, 3 days, synP element and representative endogenous regions): substantial increase in R-loops

CCCc1cc(C)[nH]c(=O)c1CNC(=O)c1cc(-c2ccnc(N3CCN(C)CC3)c2)cc2c1cnn2C(C)C [GSK343]
LSD1 silencing capacity at the synP element after GSK343 treatment ([2]; 5 μM GSK343 vs DMSO during rTetR-LSD1 recruitment via DOX, time course): diminished LSD1 silencing capacity at the synP element
R-loop occupancy after GSK343 treatment ([3]; 5 μM GSK343, 3 days, synP element and representative endogenous loci): increased R-loop occupancy
H3K27me3 signal after GSK343 treatment [4]: global reduction of H3K27me3 signal
